The nature of series [1]: Absorption and excretion of 14C-labelled compounds. It is filed as in vivo, rats. Particulars: for dose excreted in expiration: within 24 hours. As for the experimental part: The carbon atom at the 2-position of the chloroethyl group (i.e. ClCH2 CH2 -) of 6DCNU and 6MCαG was labelled with radioactive ^14 C, and the absorption and excretion of these compounds were tested using rats.

For series [2] the following is noted: rat, in vivo; cited from earlier work.

On to `O=NN(C[14CH2]Cl)C(=O)NC[C@H]1OC(O)[C@H](O)[C@@H](O)[C@@H]1O` (stereo partly drawn) [6DCNU-^14 C], for which the “dose excreted in urine” value in series [1] (within 12 hours after the dose) is 65-70%; in series [1] (within 72 hours after the dose) it was 75-80%. Further, in series [1], the “dose excreted in expiration” value is recorded as 3-5%. Moreover, the “dose excreted in faeces” value in series [1] (within 72 hours) is on record as 10-15%.
`CO[C@H]1O[C@H](CNC(=O)N(C[14CH2]Cl)N=O)[C@@H](O)[C@H](O)[C@H]1O` [6MCαG-^14 C]: the “dose excreted in urine” value in series [1] (within 12 hours after the dose) was 50-60%; in series [1] (within 96 hours after the dose), 80-90%. The “dose excreted in expiration” value in series [1] was 3-4%. Also, the “dose excreted in faeces” value in series [1] (within 96 hours) is recorded as 5-6%.
`CN(N=O)C(=O)N[C@H]1C(O)O[C@H](CO)[C@@H](O)[C@@H]1O` (stereo partly drawn) [SZ, 3-(d-glucopyranos-2-yl)-1-methyl-1-nitrosourea]: the “diabetogenic activity, decreasing order” value in series [2] is listed as “SZ>DCNU>GANU> 2MCαG≈6MCαG”.

Values taken from patent US4156777A, “Process for producing glucopyranose-nitrosourea compounds and novel compounds included therein” (Tokyo Tanabe Company, Limited, priority 1977, dated 1979).
